This is an account of results in PubChem BioAssay (NCI).

What all share (experiment): NCI tumour cell line growth inhibition, 48 h
Test [1] concerns SN12K1 renal.
The test system of test [2] is KM20L2 colon.
Test [3] has as its system XF 498 CNS.
Test [4] concerns SNB-78 CNS.
In test [5] the test system is P388/ADR leukemia.
The test system of test [6] is DMS 273 small cell lung.
In test [7] the test system is M19-MEL melanoma.
In test [8] the test system is RXF-631 renal.
In test [9] the test system is LXFL 529 NSCLC.
Test [10] relates to P388 leukemia.

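Following 48 hours of exposure in 96-well plates, responses at five concentrations were used to interpolate endpoints linearly. TGI denotes the concentration required for complete inhibition of growth.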 A value given as a limit tells only on which side of the number the result lay.

On to `O=C(CCBr)N1CCN(C(=O)CCBr)CC1`, for which the TGI in test [1] was 196 µM; in test [2], 277 µM; in test [3], 133 µM; in test [4], 295 µM; in [5], 181 µM; in test [6] it was 168 µM. Moreover, the TGI in test [7] is 252 µM; in [8] it was 134 µM; in test [9] it was 137 µM; in [10], 293 µM.
Take `COc1ccc2c(c1)Oc1cc(O)ccc1[C@H]2c1ccccc1C(=O)NC(C)c1ccccc1` (some centres undefined): the TGI came out at 35.3 µM in test [2]; 33.5 µM in test [4]; 28.4 µM in test [6]; 29.4 µM in [7]; 28.7 µM in test [9].
As to `CC(C)OP(=S)(NC(=S)c1ccccc1)OC(C)C`, the TGI in test [2], in [3], in test [4], in [6] and in test [9] was > 100 µM throughout.
Regarding `COc1cccc2c1OC1Sc3ccccc3-c3nn(-c4ccccc4)c-2c31` (centres undefined), the TGI in test [2], in test [3], in test [4], in test [6], in [7] and in test [8] was > 100 µM in each case. In addition, in [9], the TGI was > 100 µM.
On to `CCC12CCCN(Cc3ccccc3)C1c1c(n(C)c3ccccc13)C(CO)C2` (centres undefined), for which the TGI in [2] was 78.1 µM; in test [3], 79.7 µM; in test [6], 89.7 µM; in test [7], 125 µM; in test [8], 142 µM; in [9], 87.4 µM.
With `Cc1cc(=O)oc2cc(OCCCOc3ccc4c(C)cc(=O)oc4c3)ccc12`, the TGI in test [2], in [3], in test [6], in test [7], in [8] and in test [9] was > 100 µM each time.
With `CC(C)(C)N/N=C(\C(=O)Nc1cccc(Cl)c1)C1C(=O)Nc2ccccc2S1=O` (centres undefined), the TGI in [2], in [3], in [6], in [7], in test [8] and in test [9] was > 100 µM throughout.
On to `COc1cccc2c1C(=O)c1c(O)c3c(c(O)c1C2=O)C[C@@](O)(C(C)=O)CC3S(=O)(=O)O` (some centres undefined), for which the TGI in test [2], in test [3], in [4], in test [6], in [7] and in [8] was > 100 µM each time. In addition, the TGI in test [9] was > 100 µM.
`CCc1cc(C)cc2[n+]1CC=C2`: the TGI is 95.6 µM in test [2]; 20.4 µM in test [3]; > 100 µM in test [4]; 6.55 µM in [6]; 52.4 µM in [7]; 79.2 µM in [9].
Regarding `Nc1nc(NCCOCP(=O)(O)O)c([N+](=O)[O-])c(=O)[nH]1`, the TGI in test [2], in test [3], in test [4], in test [6], in test [7] and in test [9] was > 100 µM in each case.
